This note sets out measurements from patent publication US10590393B2, “Retinoic acid enhanced human stem cell derived blood brain barrier model” (Wisconsin Alumni Research Foundation, priority 2012, dated 2020).

Common to all, as to format: cell-based, human
Assay [1] concerns DF19-9-11T-derived BMECs. The assay can be described thus: TEER of RA-treated DF19-9-11T-derived BMECs. As for the experimental part:
(§1) IMR90-4 and DF19-9-11T hiPSCs and H9 hESCs were maintained between passages 26-42 on […] (BD Biosciences) in mTeSR1™ medium ([…] Technologies) or on irradiated mouse embryonic fibroblasts (MEFs) in standard unconditioned medium (Dulbecco's Modified Eagle's Medium [DMEM]/Ham's F12 containing 20% Knockout Serum Replacer (Invitrogen), 1×MEM nonessential amino acids (Invitrogen), 1 mM L-glutamine (Sigma), 0.1 mM β-mercaptoethanol (Sigma), and human basic fibroblast growth factor (bFGF; 100 ng/mL for hiPSCs and 4 ng/mL for hESCs; Waisman Clinical Biomanufacturing Facility, University of Wisconsin-Madison)). Prior to differentiation, cells were passaged onto Matrigel (BD Biosciences) in mTeSR1 medium ([…] Technologies). After 2-3 days in mTeSR1, medium was switched to unconditioned medium (UM) lacking bFGF for 6 days. Human endothelial serum-free medium (hESFM; Invitrogen) supplemented with 20 ng/mL bFGF (R&D Systems) and 1% platelet-poor plasma derived bovine serum (Biomedical Technologies, Inc.) was then added for an additional 2-4 days.
(§2) All-trans RA (Sigma) was included at concentrations of 1-10 μM depending on the experiment. Equivalent DMSO was used as a vehicle control in some experiments. Cells were then dissociated with Versene (Invitrogen) and plated onto 12-well tissue culture polystyrene plates or 1.12 cm^2 Transwell-Clear® permeable inserts (0.4 μm pore size) coated with a mixture of collagen IV (400 μg/mL; Sigma) and fibronectin (100 μg/mL; Sigma). Culture plates were incubated with the coating for at least 30 min at 37° C., while the inserts were incubated for a minimum of 4 h at 37° C. hPSC-derived BMECs were then cultured in EC medium overnight (with or without RA). […] Also, our previous study used hPSCs exclusively maintained on MEFs.
FIG. 5 dictates the timing of co-culture experiments. […] Trans-endothelial electrical resistance (TEER) was measured immediately prior to co-culture using an EVOM voltohmmeter (World Precision Instruments, Sarasota, Fla., USA) and approximately every 24 h thereafter as necessary.

For assay [2], the system named is H9-derived BMECs. The assay can be described thus: TEER of RA-treated H9-derived BMECs. As for the experimental part:
as §1, §2
FIG. 5 dictates the timing of co-culture experiments. During the subculture phase, hPSC-derived BMECs were monocultured or co-cultured with pericytes or fibroblasts in EC medium (with or without RA). After the 24 h subculture phase, hPSC-derived BMECs were maintained as a monoculture or co-cultured with differentiated hNPCs, pericytes, or fibroblasts. Depending on the experiment, co-culture was conducted in NPC differentiation medium containing 10% FBS (as opposed to the 1% FBS used during NPC differentiation) or hESFM containing 1% PDS but not bFGF (modified EC medium). Trans-endothelial electrical resistance (TEER) was measured immediately prior to co-culture using an EVOM voltohmmeter (World Precision Instruments, Sarasota, Fla., USA) and approximately every 24 h thereafter as necessary.

Assay [3] deals with IMR90-4-derived BMECs. The assay is described as follows: Analysis of tight junction fidelity (frayed tight junctions, occludin immunolabel). As for the experimental part:
Cells were washed twice with phosphate-buffered saline (PBS; Sigma) and fixed with either 100% ice-cold methanol for 10 min or 4% paraformaldehyde for 15 min. Cells were then washed twice with PBS and blocked in PBS containing 40% goat serum (40% PBSG; Sigma) at 20° C. for 30 min. In some instances, 0.1% Triton X-100 (TX-100) was included during this step to permeabilize the cells. Cells were then washed once with PBS and incubated with primary antibodies against occludin (1:100; Invitrogen), claudin-5 (1:100; Invitrogen), VE-cadherin (1:25; Santa Cruz Biotechnology), von Willebrand Factor (vWF; 1:100; Dako), p-glycoprotein (clone F4; 1:25; Lab Vision), breast cancer resistance protein (BCRP, clone 5D3; 1:25; Millipore), multidrug resistance protein 1 (MRP1, clone QCRL-1; 1:100; Millipore), in 40% PBSG at 4° C. overnight. Cells were washed three times with PBS and incubated with secondary antibodies (goat anti-rabbit Texas Red and goat anti-mouse Alexa Fluor 488; 1:500; Invitrogen) for 1 h at 20° C. Cell nuclei were counterstained with 300 nM 4′,6-Diamidino-2-pheny-lindoldihydrochloride (DAPI) for 10 min. […] For quantitative analysis of BMEC integrity, the percentage of cells expressing frayed tight junctions was counted using BMECs immunolabeled for occludin. […] A minimum of four separate frames and 1000 total cells were counted to obtain a percentage of frayed tight junctions.

“And” between values parts separate entries of the source, which are not always exact repeats. Identical values can stand only once.

`CC1=C(/C=C/C(C)=C/C=C/C(C)=C/C(=O)O)C(C)(C)CCC1` [RA, retinoic acid]: the “Maximum TEER” value in assay [1] (subculture: pericytes, co-culture phase: differentiated NPCs (11 days), 1% PDS) was 4738±303 Ω × cm^2 and 4738 ± 303 (2) Ω × cm^2; in assay [1] (t = 24 h, triplicate filters), 1968±288 Ω × cm^2; in assay [2] (subculture: pericytes, co-culture phase: differentiated NPCs (9 days), 1% PDS), 1675±95 Ω × cm^2 and 1675 ± 95 (2) Ω × cm^2; in assay [2] (t = 24 h, triplicate filters) it was 1028 ± 153 Ω × cm^2. The “Average TEER” value in assay [1] (t = 24 h, between biological replicates) is reported as 1707 ± 417 Ω × cm^2; in assay [2] (t = 24 h, optimized RA schedule, between biological replicates), 646±308 Ω × cm^2. The TEER in assay [2] (optimized RA schedule (6D UM, 1D EC, 3D EC+RA), after purification (FIG. 9c)) is listed as 1039±142 Ω×cm^2. Besides, the “cells with frayed tight junctions” value in assay [3] (BMECs only treated with RA) came to 1.5±0.9%; in assay [3] (RA-treated BMECs with sequential pericyte/hNPC co-culture in modified EC medium) it was 1.4±0.6%.
